For 21 compounds, IC50 and percent inhibition results are on record in patent publication EP1191024A1, “Thiadiazines and their use as inhibitors of metalloproteinases” (Tschesche, Harald, priority 2000, dated 2002).

Test [1] concerns the target cdMMP-2 (Homo sapiens, UniProt P08253). The test is described as follows: MMP microfluorometric profiling assay (fluorogenic Mca-peptide substrate). It counts as biochemical. The settings on record: for percent inhibition: cdMMP-2, @ 15 (µM). As for the experimental part:
The tested MMP enzymes were prepared more specifically in the laboratories of the applicants, with the exception of MMP-1. MMP-1 from human rheumatoid synovial fibroblasts was purchased from Calbiochem-Novabiochem Corporation, LaJolla. Preparation of the recombinant catalytic domain of human Gelatinase A (cdMMP-2): The catalytic domain of Pro-Gelatinase A was prepared using an E. coli expression system according to the method described by Kröger et al^[19]. The proenzyme was activated with 0.5 mM APMA at 37°C prior to use in the assay. […] Preparation of PMNL-Gelatinase (MMP-9): Latent PMNL-pro-Gelatinase was prepared from human plasma buffy coat as described by Tschesche et al^[21]. PMNL-pro-Gelatinase was activated prior to use by incubation with Trypsin at 37°C for 10 min. Inactivation of Trypsin was accomplished with TKI. […] The overexpressed protein was isolated as inclusion bodies and the renatured protein was purified by affinity chromatography with a hydroxamate inhibitor coupled column as described^[22]. Preparation of the recombinant catalytic domain of human Collagenase-3 (cdMMP-13): Human pro-cdMMP-13 was prepared using an E. coli expression system according to the method described^[23]. The isolated pro-cdMMP-13 was activated prior to use by incubation with 5 mM HgCl2 for 2 h at 37°C.
The enzymatic activity was measured using a modified version of a resonance energy transfer fluorogenic assay as described^[26]. Progress curves were monitored by following the increase in fluorescence at 393 nm (λex = 328 nm), induced by the cleavage of the (7-methoxycoumarin-4-yl)acetyl-Pro-Leu-Gly-Leu-(3-[2,4-dinitro-phenyl]-L-2,3-diamino-propionyl)-Ala-Arg-NH2 (Mca-Pro-Leu-Gly-Leu-Dpa-Ala-Arg-NH2) fluorogenic substrate by MMPs. The fluorescent MCA-group is quenched by resonance energy transfer to the 2,4-dinitrophenyl group. Matrix metalloproteinases cleave this substrate at the Gly-Leu bond. Cleavage results in the loss of energy transfer and a large increase in fluorescence of the MCA group. This substrate is commercially available from Bachem, Switzerland.
Enzyme inhibition assays were carried out in MRB which consisted of 50 mM HEPES/NaOH, pH 7.0, 10 mM CaCl2 and 0,02% (w/v) PEG 8000 at 25°C. MMP microfluorometric profiling assay was done in white U-bottomed 96-well plates (Microfluor 1 White, Dynex, USA) with a final substrate concentration of 6 µM MCA-peptide, approximately 0.3 to 5 nM MMP with variable inhibitor concentrations and 2% DMSO vehicle. From a 1.5 mM stock (100% DMSO) the inhibitors were serially diluted with MRB to 15, 10, 5, 3, 1, 0.6, 0.3, 0.1, 0.05, 0.01 and 0.005 µM final assay concentration. Column 1, rows A through H, contained only DMSO for the "enzyme-only" wells in the assay. After preincubation for 30 min at 25°C the reaction was started by addition of substrate and the plate was read on a SpectraFluor Plus (Tecan, Germany) plate reader with excitation at 330 nm and emission at 405 nm with the gain set to 150. Each measurement was done in triplicate to ensure statistically significant results. The experiment was further controlled for background fluorescence of the substrate, for fluorescence of fully cleaved substrate and for fluorescence quenching or augmentation from solutions containing the test compounds.
Datapoints from eight different MMPs generated on the SpectraFluor Plus were directly visualized on a master Excel spreadsheet. The response of inhibition was determinated for each inhibitor concentration by comparing the amount of hydrolysis (fluorescence units generated over 30 minutes of hydrolysis) of wells containing compound with the "enzyme-only" wells in column 1. With the program GraFit (Erithacus Software Limited) a 4 parameter logistic fit to the dose-response data was used to calculate IC50 values for each compound.

Test [2] concerns the target T1, ΔTM-MMP-14 (Homo sapiens, UniProt P50281).
T1 construct: The ectodomain of MMP-14 was expressed in Pichia Pastoris; made in house; host or cells: Pichia pastoris
Described as above. It counts as biochemical.

pIC50: −log10 of the molar value. Counter-ions that a name gives are not always drawn. Like-named read-outs stand apart in the source and are kept apart here.

Chain of cdMMP-2 (P08253 110-446): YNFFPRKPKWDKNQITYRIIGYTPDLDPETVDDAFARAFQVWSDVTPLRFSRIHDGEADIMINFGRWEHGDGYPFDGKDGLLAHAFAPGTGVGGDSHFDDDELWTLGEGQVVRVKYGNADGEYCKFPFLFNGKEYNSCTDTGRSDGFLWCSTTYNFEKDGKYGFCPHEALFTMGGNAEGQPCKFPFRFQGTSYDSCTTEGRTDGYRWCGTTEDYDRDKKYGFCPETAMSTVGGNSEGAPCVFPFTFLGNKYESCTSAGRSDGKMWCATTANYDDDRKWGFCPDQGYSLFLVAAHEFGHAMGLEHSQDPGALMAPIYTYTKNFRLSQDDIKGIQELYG

As for `CC(C)(C)c1ccc(S(=O)(=O)NCC(=O)NC2=NN=C(c3ccc(Cl)cc3Cl)CS2)cc1` [Example 18, 2-{[(4-tert-Butylphenyl)sulfonyl]amino}-N-[5-(2,4-dichlorophenyl)-6H-1,3,4-thiadiazin-2-yl]acetamide], the pIC50 in test [1] (read-out: cdMMP-2 IC50) is 5.61; in test [2], 6.05. Turning to `O=C(CC1NC(=O)NC1=O)NC1=NN=C(c2ccc(N3CCCC3)cc2)CS1` (stereo not shown) [Example 26, 2-(2,5-Dioxo-4-imidazolidinyl)-N-{5-[4-(1-pyrrolidinyl)phenyl]-6H-1,3,4-thiadiazin-2-yl}acetamide], the pIC50 in test [1] (read-out: cdMMP-2 IC50) is 6.05. The percent inhibition in test [2] (ΔTM-MMP-14, @ 15 (µM)) was 63%^a)@ 15. As for `O=C(CC1NC(=O)NC1=O)NC1=NN=C(c2ccc(C3CCCCC3)cc2)CS1` (stereo not shown) [Example 25, N-[5-(4-Cyclohexylphenyl)-6H-1,3,4-thiadiazin-2-yl]-2-(2,5-dioxo-4-imidazolidinyl)acetamide], the percent inhibition in test [1] turned out to be 53%^a)@ 15. As to `O=C(CC1NC(=O)NC1=O)NC1=NN=C(c2ccc(Br)cc2)CS1` (stereo not shown) [Example 24, N-[5-(4-Bromophenyl)-6H-1,3,4-thiadiazin-2-yl]-2-(2,5-dioxo-4-imidazolidinyl)-acetamide], the pIC50 in test [1] (read-out: cdMMP-2 IC50) was 6.06. As for `C[C@@H](NS(=O)(=O)c1ccccc1)C(=O)NC1=NN=C(c2ccc(C#N)cc2)CS1` [Example 1, (2R)-N-[5-(4-Cyanophenyl)-6H-1,3,4-thiadiazine-2-yl]-2-[(phenylsulfonyl)amino]-propanamide], the figures for the pIC50 in test [1] (read-out: cdMMP-2 IC50) and in test [2] were 6.45 and 6.21, respectively. Taken in the same sequence, the figures for `C[C@H](NS(=O)(=O)c1ccccc1)C(=O)NC1=NN=C(c2ccc(Cl)s2)CS1` [Example 10, (2S)-N-[5-(5-Chloro-2-thienyl)-6H-1,3,4-thiadiazin-2-yl]-2-[(phenylsulfonyl)-amino]propanamide] were 5.51 and 6.45.

In turn, `C[C@H](NS(=O)(=O)c1ccccc1)C(=O)NC1=NN=C(c2ccc(C(F)(F)F)cc2)CS1` [Example 4, (2S)-2-[(Phenylsulfonyl)amino]-N-{5-[4-(trifluormethyl)phenyl]-6H-1,3,4-thiadiazin-2-yl}propanamide] came in with a percent inhibition in test [1] of 25%^a)@ 15. In test [2], this compound had a pIC50 of 6.15. In the case of `C[C@H](NS(=O)(=O)c1ccccc1)C(=O)NC1=NN=C(c2ccc([N+](=O)[O-])cc2)CS1` [Example 9, (2S)-N-[5-(4-Nitrophenyl)-6H-1,3,4-thiadiazin-2-yl]-2-[(phenylsulfonyl)amino]-propanamide], the pIC50 in test [1] (read-out: cdMMP-2 IC50) is 6.31. Regarding `CC(C)[C@H](NS(=O)(=O)c1ccccc1)C(=O)NC1=NN=C(c2ccc(Cl)cc2)CS1` [Example 22, (2S)-N-[5-(4-Chlorophenyl)-6H-1,3,4-thiadiazin-2-yl]-3-methyl-2-[(phenylsulfonyl)amino]butanamide], the pIC50 in test [1] (read-out: cdMMP-2 IC50) is 5.84. Consider `COc1ccc(S(=O)(=O)NCC(=O)NC2=NN=C(c3c(F)c(F)c(F)c(F)c3F)CS2)cc1` [Example 16, 2-{[(4-Methoxyphenyl)sulfonyl]amino}-N-[5-(2,3,4,5,6-pentafluorophenyl)-6H-1,3,4-thiadiazin-2-yl]acetamide], for which the pIC50 in test [1] (read-out: cdMMP-2 IC50) was 5.41.

For `COc1ccc(S(=O)(=O)NCC(=O)NC2=NN=C(c3ccc(Cl)cc3Cl)CS2)cc1` [Example 19, N-[5-(2,4-Dichlorophenyl)-6H-1,3,4-thiadiazin-2-yl]-2-{[(4-methoxyphenyl)-sulfonyl]amino}acetamide], in test [1] (read-out: cdMMP-2 IC50), the negative-log IC50 (pIC50) is 5.82. `O=C(CC1NC(=O)NC1=O)NC1=NN=C(c2ccc(Cl)cc2)CS1` (stereo not shown) [Example 23, N-[5-(4-Chlorophenyl)-6H-1,3,4-thiadiazin-2-yl]-2-(2,5-dioxo-4-imidazolidinyl)-acetamide]: the percent inhibition in test [1] came out at 67%^a)@ 15. Take `CC(C)[C@@H](NS(=O)(=O)c1ccccc1)C(=O)NC1=NN=C(c2ccc(Cl)cc2)CS1` [Example 2, (2R)-N-[5-(4-Chlorophenyl)-6H-1,3,4-thiadiazin-2-yl]-3-methyl-2-[(phenylsulfonyl)amino]butanamide]: the pIC50 in test [1] (read-out: cdMMP-2 IC50) was 5.85; in test [2] it was 6.23. Turning to `C[C@H](NS(=O)(=O)c1ccccc1)C(=O)NC1=NN=C(c2ccc(Br)cc2)CS1` [Example 6, (2S)-N-[5-(4-Bromophenyl)-6H-1,3,4-thiadiazin-2-yl]-2-[(phenylsulfonyl)amino]-propanamide], the pIC50 in test [1] (read-out: cdMMP-2 IC50) is 6.34.

Consider `COc1ccc(S(=O)(=O)N[C@@H](C)C(=O)NC2=NN=C(c3ccc(C)cc3)CS2)cc1` [Example 17, (2S)-2-{[(4-Methoxyphenyl)sulfonyl]amino}-N-[5-(4-methylphenyl)-6H-1,3,4-thiadiazin-2-yl]propanamide], for which the negative logarithm of the IC50 (pIC50) in test [1] (read-out: cdMMP-2 IC50) was 6.17. In turn, `C=CCNC1=NN=C(c2ccc(Cl)cc2)CS1` [Example 31, N-Allyl-5-(4-chlorophenyl)-6H-1,3,4-thiadiazin-2-amine hydrobromide] had a negative-log IC50 (pIC50) in test [1] of 5.48. For the compound `C[C@@H](NS(=O)(=O)c1ccccc1)C(=O)NC1=NN=C(c2ccc(F)cc2)CS1` [Example 14, (2R)-N-[5-(4-Fluorophenyl)-6H-1,3,4-thiadiazin-2-yl]-2-[(phenylsulfonyl)amino]-propanamide], the negative logarithm of the IC50 (pIC50) in test [1] (read-out: cdMMP-2 IC50) was 6.24; in test [2], 6.22. The like results for `C[C@H](NS(=O)(=O)c1cccnc1)C(=O)NC1=NN=C(c2ccc(Cl)cc2)CS1` [Example 29, (2S)-N-[5-(4-Chlorophenyl)-6H-1,3,4-thiadiazin-2-yl]-2-[(3-pyridylsulfonyl)-amino]propanamide] were, in that order, 6.45 and 6.37.

The compound `C[C@H](NS(=O)(=O)N1CCOCC1)C(=O)NC1=NN=C(c2ccc(Cl)cc2)CS1` [Example 28, (2S)-N-[5-(4-Chlorophenyl)-6H-1,3,4-thiadiazin-2yl-]-2-[(4-morpholinylsulfonyl)amino]propanamide] had a negative-log IC50 (pIC50) in test [1] of 6.18. For the compound `O=C1C[C@@H](C(=O)NC2=NN=C(c3ccc(Cl)cc3)CS2)NC(=O)N1` [Example 30, (4S)-N-[5-(4-Chlorophenyl)-6H-1,3,4-thiadiazin-2-yl]-2,6-dioxohexahydro-4-pyrimidinecarboxamide], the pIC50 in test [1] (read-out: cdMMP-2 IC50) and in test [2] was 6.16 throughout. Regarding `C[C@H](NS(=O)(=O)c1ccccc1)C(=O)NC1=NN=C(c2ccc(C#N)cc2)CS1` [Example 3, (2S)-N-[5-(4-Cyanophenyl)-6H-1,3,4-thiadiazin-2-yl]-2-[(phenylsulfonyl)amino]-propanamide], the pIC50 was 6.41 in test [1] (read-out: cdMMP-2 IC50) and 6.15 in test [2].

For orientation: pIC50 means the IC50 on a negative log10 scale, so that one unit is a factor of ten.
